# Experiment: 13C-sodium bicarbonate breath test in one asthma patient, pre vs post inhaler medication
# Type: in vivo, human
# Details: breath test 45 minutes post medication vs pre-medication, advair and albuterol taken together, FIG. 4
# Description: FIG. 3 exemplifies two such breath curves.
# In this embodiment, the slope of the Δ ^13CO2 curve at time points t1 and t2 is calculated according to the following equation: slope={(Δ ^13CO2)2−(Δ ^13CO2)1}/(t2−t1)
# As an example, the slope of the curve of FIG. 4 can be measured at the 10 minute time point and the 20 minute time point, to give a variable for determining lung function. […] It can be seen from FIG. 4 that the individual post-medication curve has a steeper slope for the 10 and 20 minute time point interval than prior to the medication, indicating an improved lung function. These specific time values are exemplary only and other time periods or half life of the disappearance curve can be used.
# This example describes the monitoring of the reduction in airway resistance in one asthma patient following inhaler medication therapy—advair (fluticasone propionate 100 mcg and salmeterol 50 mcg inhalation powder) and albuterol (racemic (α^1-[(tert-butylamino)methyl]-4-hydroxy-m-xylene-α,α′-diol, commercially available as Ventolin®, Proventil®) a relatively selective beta2-adrenergic bronchodilator.
# A breath test was performed at 7 am before the patient ingested any asthma medication. The medication was taken at 8:15 am.
smiles,measurement,value
CC(C)(C)NCC(O)c1ccc(O)c(CO)c1 (racemic) [albuterol],"AUC of expired Δ13CO2 breath curve (cumulative ‰×h), post vs pre medication",improvement
same,"slope of Δ13CO2 breath curve between 10-20 minutes, post vs pre medication",possibly the slope (steepening)
